Laboratory results: BindingDB's records for doi:10.1016/s0960-894x(99)00425-4 (Merck Research Laboratorie, 1999)

target: Beta-lactamase CcrA (Bacteroides fragilis); test: Inhibitory activity against CCRA (Bacteroides fragilis) metallo-beta-lactamase

Structure (SMILES)	IC50 [µM]
C[C@@H](NC(=O)c1ccccc1)C(=O)SCC(=O)O [(R)-2-(2-benzamidopropanoylthio)acetic acid]	> 1000
CC(=O)N[C@H](C)C(=O)S[C@H](Cc1ccc(-c2ccccc2)cc1)C(=O)O [(R)-2-((R)-2-Acetylamino-propionylsulfanyl)-3-biphenyl-4-yl-propionic acid]	1000
CC(=O)N[C@H](C)C(=O)S[C@H](Cc1ccccc1)C(=O)O [(R)-2-((R)-2-Acetylamino-propionylsulfanyl)-3-phenyl-propionic acid]	> 1000
C=CCOC(=O)N[C@H](C)C(=O)S[C@H](Cc1ccc2oc3ccccc3c2c1)C(=O)O [(R)-2-((R)-2-Allyloxycarbonylamino-propionylsulfanyl)-3-dibenzofuran-2-yl-propionic acid]	> 1500
C[C@@H](NC(=O)c1ccccc1)C(=O)S[C@H](Cc1ccc(-c2ccccc2)cc1)C(=O)O [(R)-2-((R)-2-Benzoylamino-propionylsulfanyl)-3-biphenyl-4-yl-propionic acid]	1000
C[C@@H](NC(=O)c1ccccc1)C(=O)S[C@H](Cc1ccc2oc3ccccc3c2c1)C(=O)O [(R)-2-((R)-2-Benzoylamino-propionylsulfanyl)-3-dibenzofuran-2-yl-propionic acid]	680
CC(=O)S[C@H](Cc1ccc(-c2ccccc2)cc1)C(=O)O [(R)-2-Acetylsulfanyl-3-biphenyl-4-yl-propionic acid]	750
CC(=O)S[C@H](Cc1ccc2oc3ccccc3c2c1)C(=O)O [(R)-2-Acetylsulfanyl-3-dibenzofuran-2-yl-propionic acid]	> 500
CC(=O)S[C@H](Cc1ccccc1)C(=O)O [(R)-2-Acetylsulfanyl-3-phenyl-propionic acid]	> 1000
O=C(S[C@H](Cc1ccccc1)C(=O)O)c1ccccc1 [(R)-2-Benzoylsulfanyl-3-phenyl-propionic acid]	> 1000
CC(C)C(=O)N[C@H](C)C(=O)S[C@H](Cc1ccc(-c2ccccc2)cc1)C(=O)O [(R)-3-Biphenyl-4-yl-2-((R)-2-isobutyrylamino-propionylsulfanyl)-propionic acid]	> 1500
C[C@@H](NC(=O)Cc1ccccc1)C(=O)S[C@H](Cc1ccc(-c2ccccc2)cc1)C(=O)O [(R)-3-Biphenyl-4-yl-2-((R)-2-phenylacetylamino-propionylsulfanyl)-propionic acid]	> 1500
CCC(=O)N[C@H](C)C(=O)S[C@H](Cc1ccc(-c2ccccc2)cc1)C(=O)O [(R)-3-Biphenyl-4-yl-2-((R)-2-propionylamino-propionylsulfanyl)-propionic acid]	> 1500
C[C@@H](NC(=O)Cc1cccc2ccccc12)C(=O)S[C@H](Cc1ccc(-c2ccccc2)cc1)C(=O)O [(R)-3-Biphenyl-4-yl-2-[(R)-2-(2-naphthalen-1-yl-acetylamino)-propionylsulfanyl]-propionic acid]	> 1500
C[C@@H](NC(=O)COc1ccccc1)C(=O)S[C@H](Cc1ccc(-c2ccccc2)cc1)C(=O)O [(R)-3-Biphenyl-4-yl-2-[(R)-2-(2-phenoxy-acetylamino)-propionylsulfanyl]-propionic acid]	930
O=C(O)[C@H](S)Cc1ccc(-c2ccccc2)cc1 [(R)-3-Biphenyl-4-yl-2-mercapto-propionic acid]	750
O=C(O)[C@H](S)Cc1ccc2oc3ccccc3c2c1 [(R)-3-Dibenzofuran-2-yl-2-mercapto-propionic acid]	9.9
C[C@@H](NC(=O)CCC(=O)O)C(=O)S[C@H](Cc1ccc(-c2ccccc2)cc1)C(=O)O [N-[(R)-1-((R)-2-Biphenyl-4-yl-1-carboxy-ethylsulfanylcarbonyl)-ethyl]-succinamic acid]	> 1500
